Experimental data as given in patent EP4813989A1, “CRYSTAL, PHARMACEUTICAL COMPOSITION, PREPARATION METHOD THEREFOR, AND USE THEREOF” (TYK Medicines, Inc., priority 2023, dated 2025).

Columns and labels:
[1] = Solid form stability on standing (XRD/PLM); format: physicochemical
Text: The resulting solid sample was subjected to a corresponding characterization test. An XRD pattern of the sample can be seen in FIG. 8.
A crystal form E sample was obtained by suspending and stirring the amorphous sample prepared in Example 2 in a 1,4-dioxane/n-heptane solvent system at room temperature. XRD results of the sample can be seen in FIG. 9. […] On this basis, it was inferred that the crystal form E was a metastable crystal form.
XRD results of the sample can be seen in FIG. 17.
XRD results of the sample can be seen in FIG. 20. TGA/DSC results can be seen in FIG. 21. […] An ^1H NMR spectrum of the crystal form D was obtained by a test in DMSO-d6, and no obvious solvent residue was observed. […] Based on nuclear magnetic resonance data and heating test results of the sample, it was inferred that the crystal form D was a hydrate crystal form.

[2] = High-temperature test, related substances by HPLC; format: physicochemical; conditions: for Increase of impurity RRT0.66 content / Increase of impurity RRT1.02 content / Increase of impurity RRT1.08 content / Increase of total impurities / Impurity content RRT0.55 / Impurity content RRT0.66 / Impurity content RRT0.71 / Impurity content RRT0.94 / Impurity content RRT1.02 / Impurity content RRT1.06 / Impurity content RRT1.08 / Impurity content RRT1.15 / Total impurities: 50°C±2°C; for Impurity content RRT0.55 / Impurity content RRT0.66 / Impurity content RRT0.71 / Impurity content RRT0.94 / Impurity content RRT1.02 / Impurity content RRT1.06 / Impurity content RRT1.08 / Impurity content RRT1.15 / Total impurities: open
Protocol: An investigation method for the high-temperature test can be seen in Table 11 below.
Results of related substances in each crystal form under the high-temperature condition (50°C±2°C) can be seen in Table 15.
HPLC detection results of related substances under the high-temperature condition: Table 15

## C[C@@H](Nc1ccn2ncc(C3=NOC(C)(C)N3)c2n1)c1cc(F)cc(F)c1F [amorphous form]
[1]; ambient conditions (room temperature, >20%RH), overnight plus two days
  Solid form stability: unstable under ambient conditions

## C[C@@H](Nc1ccn2ncc(C3=NOC(C)(C)N3)c2n1)c1cc(F)cc(F)c1F [crystal form E]
[2]; 32 days
  Increase of impurity RRT0.66 content: 0.05%
  Increase of impurity RRT1.02 content: 0.19%
  Increase of impurity RRT1.08 content: 0.23%
  Increase of total impurities: 0.51%
  Impurity content RRT0.55: 0.04%
  Impurity content RRT0.66: 0.26%
  Impurity content RRT0.71: 0.14%
  Impurity content RRT0.94: 0.05%
  Impurity content RRT1.02: 0.40%
  Impurity content RRT1.06: 0.05%
  Impurity content RRT1.08: 0.40%
  Impurity content RRT1.15: 0.05%
  Total impurities: 1.40%
[2]; 0 day
  Impurity content RRT0.55: 0.04%
  Impurity content RRT0.66: 0.21%
  Impurity content RRT0.71: 0.14%
  Impurity content RRT0.94: 0.03%
  Impurity content RRT1.02: 0.21%
  Impurity content RRT1.06: 0.07%
  Impurity content RRT1.08: 0.17%
  Impurity content RRT1.15: 0.03%
  Total impurities: 0.89%
[2]; 5 days
  Impurity content RRT0.55: 0.03%
  Impurity content RRT0.66: 0.22%
  Impurity content RRT0.71: 0.15%
  Impurity content RRT0.94: 0.03%
  Impurity content RRT1.02: 0.27%
  Impurity content RRT1.06: 0.05%
  Impurity content RRT1.08: 0.24%
  Impurity content RRT1.15: 0.03%
  Total impurities: 1.03%
[2]; 11 days
  Impurity content RRT0.55: 0.04%
  Impurity content RRT0.66: 0.22%
  Impurity content RRT0.71: 0.13%
  Impurity content RRT0.94: 0.03%
  Impurity content RRT1.02: 0.30%
  Impurity content RRT1.06: 0.06%
  Impurity content RRT1.08: 0.29%
  Impurity content RRT1.15: 0.03%
  Total impurities: 1.10%
[1]; air-dried, open storage at room temperature, approximately 1 day
  Solid form stability: transformed into the crystal form A

## C[C@@H](Nc1ccn2ncc(C3=NOC(C)(C)N3)c2n1)c1cc(F)cc(F)c1F [crystal form A]
[2]; 32 days
  Increase of impurity RRT0.66 content: ≤ 0.02%
  Increase of impurity RRT1.02 content: no obvious change
  Increase of impurity RRT1.08 content: 0.05%
  Increase of total impurities: 0.16%
  Impurity content RRT0.55: 0.05%
  Impurity content RRT0.66: 0.20%
  Impurity content RRT0.71: 0.17%
  Impurity content RRT0.94: 0.05%
  Impurity content RRT1.02: 0.30%
  Impurity content RRT1.06: 0.08%
  Impurity content RRT1.08: 0.21%
  Impurity content RRT1.15: 0.05%
  Total impurities: 1.11%
[2]; 0 day
  Impurity content RRT0.55: 0.03%
  Impurity content RRT0.66: 0.18%
  Impurity content RRT0.71: 0.15%
  Impurity content RRT0.94: 0.04%
  Impurity content RRT1.02: 0.28%
  Impurity content RRT1.06: 0.07%
  Impurity content RRT1.08: 0.16%
  Impurity content RRT1.15: 0.03%
  Total impurities: 0.95%
[2]; 5 days
  Impurity content RRT0.55: 0.03%
  Impurity content RRT0.66: 0.19%
  Impurity content RRT0.71: 0.16%
  Impurity content RRT0.94: 0.04%
  Impurity content RRT1.02: 0.31%
  Impurity content RRT1.06: 0.08%
  Impurity content RRT1.08: 0.19%
  Impurity content RRT1.15: 0.03%
  Total impurities: 1.03%
[2]; 11 days
  Impurity content RRT0.55: 0.03%
  Impurity content RRT0.66: 0.19%
  Impurity content RRT0.71: 0.16%
  Impurity content RRT0.94: 0.03%
  Impurity content RRT1.02: 0.30%
  Impurity content RRT1.06: 0.08%
  Impurity content RRT1.08: 0.22%
  Impurity content RRT1.15: 0.03%
  Total impurities: 1.04%
[2]; compared with crystal form E and amorphous form, all four stress tests
  Overall stability (conclusion): the most stable crystal form
